This experiment relates to BDF1 mice, B16 melanoma ip, median survival T/C. In words: NCI In Vivo Anticancer Drug Screen. Data for tumor model B16 Melanoma (intraperitoneal) in B6D2F1 (BDF1) mice. The following applies: endpoint: median survival time, higher = longer survival. The method, boiled down: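 The ratio T/C compares compound-treated mice with vehicle-treated controls, using survival or tumor size as the endpoint in a transplantable tumor model.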

[1] abbreviates: dose: 50.0 mg/kg/injection, schedule: Q04DX003 (ip), vehicle: saline.
The mark [2] stands for this setting: dose: 100.0 mg/kg/injection, schedule: Q01DX009 (ip), vehicle: saline.
[3] abbreviates: dose: 100.0 mg/kg/injection, schedule: Q04DX003 (ip), vehicle: saline.
Setting [4] is: dose: 200.0 mg/kg/injection, schedule: Q01DX009 (ip), vehicle: saline.
Setting [5] is: dose: 25.0 mg/kg/injection, schedule: Q01DX009 (ip), vehicle: saline.
[6] abbreviates: dose: 50.0 mg/kg/injection, schedule: Q01DX009 (ip), vehicle: Klucel (hydroxypropylcellulose) (HPC).
[7] abbreviates: dose: 50.0 mg/kg/injection, schedule: Q01DX009 (ip), vehicle: saline.
[8] abbreviates: dose: 100.0 mg/kg/injection, schedule: Q01DX009 (ip), vehicle: Klucel (hydroxypropylcellulose) (HPC).
Setting [9] is: dose: 200.0 mg/kg/injection, schedule: Q01DX009 (ip), vehicle: Klucel (hydroxypropylcellulose) (HPC).
[10] abbreviates: dose: 100.0 mg/kg/injection, schedule: Q01DX009 (ip), vehicle: saline with Tween-80.
[11] abbreviates: dose: 200.0 mg/kg/injection, schedule: Q01DX009 (ip), vehicle: saline with Tween-80.
The mark [12] stands for this setting: dose: 400.0 mg/kg/injection, schedule: Q01DX009 (ip), vehicle: saline with Tween-80.
Setting [13] is: dose: 400.0 mg/kg/injection, schedule: Q01DX009 (ip), vehicle: Klucel (hydroxypropylcellulose) (HPC).
Setting [14] is: dose: 25.0 mg/kg/injection, schedule: Q01DX009 (ip), vehicle: saline with Tween-80.
[15] abbreviates: dose: 50.0 mg/kg/injection, schedule: Q01DX009 (ip), vehicle: saline with Tween-80.
Setting [16] is: dose: 12.5 mg/kg/injection, schedule: Q01DX009 (ip), vehicle: Klucel (hydroxypropylcellulose) (HPC).
[17] abbreviates: dose: 25.0 mg/kg/injection, schedule: Q01DX009 (ip), vehicle: Klucel (hydroxypropylcellulose) (HPC).
Setting [18] is: dose: 6.25 mg/kg/injection, schedule: Q01DX009 (ip), vehicle: saline with Tween-80.

Where “and” joins values, the source holds several entries; their conditions need not be identical. Identical values can stand only once. Toxic doses and inconclusive results are not listed.

On to `C1CCC(C2OCCO2)CC1`, for which the T/C was 90 % of control under setting [1]; 113 % of control under setting [2]; 95 % of control under setting [3]; 97 % of control under setting [4]; 90 % of control (dose: 200.0 mg/kg/injection, schedule: Q04DX003 (ip), vehicle: saline).

For `OCC(O)COCC#Cc1ccccc1` (configuration not stated), the T/C is 118 % of control (dose: 6.25 mg/kg/injection, schedule: Q01DX009 (ip), vehicle: saline); 114 % of control (dose: 12.5 mg/kg/injection, schedule: Q01DX009 (ip), vehicle: saline); 110 % of control under setting [5]; 87 % of control under setting [6]; 101 % of control under setting [7].

For `CCCC(C#N)(c1ccccc1)c1ccccc1`, the T/C was 90 % of control under setting [6], 90 % of control under setting [8] and 93 % of control under setting [9].

As for `CCCCCCCCCCCCCCCCCS(=O)S(=O)O` (configuration not stated), the T/C runs as follows: under setting [10], 113 % of control; under setting [11], 97 % of control; under setting [12], 95 % of control.

With `CCC(CCCN(CC)CCc1ccccc1)OC(=O)c1cc(OC)c(OC)c(OC)c1` (configuration not stated), the T/C by setting is: (dose: 4.68 mg/kg/injection, schedule: Q01DX009 (ip), vehicle: saline) 104 % of control; (dose: 9.37 mg/kg/injection, schedule: Q01DX009 (ip), vehicle: saline) 108 % of control; (dose: 18.75 mg/kg/injection, schedule: Q01DX009 (ip), vehicle: saline) 103 % of control; (dose: 37.5 mg/kg/injection, schedule: Q01DX009 (ip), vehicle: saline) 100 % of control; (dose: 75.0 mg/kg/injection, schedule: Q01DX009 (ip), vehicle: saline) 91 % of control.

As to `CCOc1ccccc1NC(=O)c1ccccc1Cl`, the T/C runs as follows: under setting [8], 106 % of control; under setting [9], 106 % of control; under setting [13], 93 % of control.

For `NC(=S)n1cccn1`, the T/C is, setting by setting: under setting [14], 96 % of control; under setting [15], 114 % of control; under setting [10], 94 % of control.

Take `NC(N)=N/N=C(/c1ccccc1)c1ccc(F)cc1`: the T/C runs as follows: (dose: 20.0 mg/kg/injection, schedule: Q01DX009 (ip), vehicle: saline) 110 % of control; (dose: 40.0 mg/kg/injection, schedule: Q01DX009 (ip), vehicle: saline) 115 % of control; (dose: 80.0 mg/kg/injection, schedule: Q01DX009 (ip), vehicle: saline) 102 % of control.

With `CCCCCCCCCCCCCCCCCCNC(=O)Nc1ccccc1CC`, the T/C under setting [15] is 86 % of control.

As for `O=C1NC(=O)C2C3C=CC(C3)C12` (configuration not stated), the T/C was 105 % of control under setting [5], 105 % of control under setting [7] and 113 % of control under setting [2].

Take `O=C(O)c1ccccc1C(=O)Nc1ccc(Cl)cc1`: the T/C under setting [10] is 105 % of control and the T/C under setting [11] is 94 % of control.

With `CS(=O)(=O)OCc1c(O)c2c(c(O)c1COS(C)(=O)=O)C(=O)C=CC2=O`, the T/C by setting is: (dose: 6.25 mg/kg/injection, schedule: Q01DX009 (ip), vehicle: Klucel (hydroxypropylcellulose) (HPC)) 111 % of control; under setting [16], 106 % of control; under setting [17], 102 % of control; under setting [6], 97 % of control.

As for `CCC(C(=O)O)C(=O)O.[NH2-].[NH2-].[Pt+2]`, the T/C was 115 % of control (dose: 8.0 mg/kg/injection, schedule: Q01DX009 (ip), vehicle: water); 108 % of control and 113 % of control (dose: 12.5 mg/kg/injection, schedule: Q04DX003 (ip), vehicle: saline); 170 % of control (dose: 16.0 mg/kg/injection, schedule: Q01DX009 (ip), vehicle: water); 170 % of control (dose: 25.0 mg/kg/injection, schedule: Q04DX003 (ip), vehicle: saline); 177 % of control and 219 % of control under setting [1]; 112 % of control and 247 % of control under setting [3].

As for `O=C(COc1ccc(Cl)cc1)Nc1cccnc1`, the T/C runs as follows: under setting [17], 90 % of control; under setting [6], 94 % of control.

For the molecule `Cc1ccc(N=Nc2c(O)ccc3ccccc23)c(C)c1`, the T/C under setting [6] was 92 % of control and the T/C under setting [13] is 150 % of control.

As to `CC(C)c1ccc(C(=O)CCCCl)cc1`, the T/C was 93 % of control under setting [10] and 86 % of control under setting [11].

`CC(=O)OC1OC(=O)C(C)(C(C)=O)C1C` (configuration not stated): the T/C is 104 % of control (dose: 2.5 mg/kg/injection, schedule: Q01DX009 (ip), vehicle: distilled water + alcohol); 102 % of control (dose: 5.0 mg/kg/injection, schedule: Q01DX009 (ip), vehicle: distilled water + alcohol); 104 % of control (dose: 10.0 mg/kg/injection, schedule: Q01DX009 (ip), vehicle: distilled water + alcohol).

As for `c1ccc2c(CC3=NCCN3)cccc2c1`, the T/C by setting is: under setting [18], 102 % of control; (dose: 12.5 mg/kg/injection, schedule: Q01DX009 (ip), vehicle: saline with Tween-80) 100 % of control; under setting [14], 102 % of control.

On to `COC(=O)c1cc(C)ccc1O`, for which the T/C runs as follows: under setting [15], 108 % of control; under setting [10], 97 % of control; under setting [11], 105 % of control.

`O=c1[nH]c(/C=C/c2ccc(Cl)cc2)nc(O)c1-c1ccc(Cl)cc1`: the T/C by setting is: (dose: 75.0 mg/kg/injection, schedule: Q04DX003 (ip), vehicle: Klucel (hydroxypropylcellulose) (HPC)) 110 % of control; (dose: 150.0 mg/kg/injection, schedule: Q04DX003 (ip), vehicle: Klucel (hydroxypropylcellulose) (HPC)) 100 % of control; (dose: 300.0 mg/kg/injection, schedule: Q04DX003 (ip), vehicle: Klucel (hydroxypropylcellulose) (HPC)) 87 % of control.

On to `Nc1ccc2nc3ccc(=O)cc-3n(-c3ccccc3)c2c1`, for which the T/C is, setting by setting: (dose: 0.5 mg/kg/injection, schedule: Q01DX009 (ip), vehicle: saline) 109 % of control; (dose: 1.0 mg/kg/injection, schedule: Q01DX009 (ip), vehicle: saline) 104 % of control; (dose: 2.5 mg/kg/injection, schedule: Q01DX009 (ip), vehicle: saline) 111 % of control; (dose: 5.0 mg/kg/injection, schedule: Q01DX009 (ip), vehicle: saline) 104 % of control; (dose: 10.0 mg/kg/injection, schedule: Q01DX009 (ip), vehicle: saline) 104 % of control.

As for `COC(=O)C1=C(C)NC(=O)NC1c1ccc(N(CCCl)CCCl)c(OC)c1` (configuration not stated), the T/C by setting is: (dose: 1.56 mg/kg/injection, schedule: Q01DX009 (ip), vehicle: Klucel (hydroxypropylcellulose) (HPC)) 154 % of control; (dose: 3.12 mg/kg/injection, schedule: Q01DX009 (ip), vehicle: Klucel (hydroxypropylcellulose) (HPC)) 178 % of control; (dose: 3.13 mg/kg/injection, schedule: Q01DX009 (ip), vehicle: saline with Tween-80) 176 % of control; under setting [18], 189 % of control.

On to `CCC(=O)/C=C/C1C(C)=CCCC1(C)C` (configuration not stated), for which the T/C by setting is: under setting [15], 104 % of control; under setting [10], 102 % of control.

For `Nn1c(=O)[nH][nH]c1=O`, the T/C is 92 % of control under setting [6]; 110 % of control under setting [8]; 115 % of control under setting [10]; 89 % of control under setting [9]; 105 % of control under setting [11]; 105 % of control under setting [12].

As for `C[Si](C)(C)c1cc(F)c(F)c(F)c1F`, the T/C is, setting by setting: (dose: 100.0 mg/kg/injection, schedule: Q04DX003 (ip), vehicle: Klucel (hydroxypropylcellulose) (HPC)) 90 % of control; (dose: 200.0 mg/kg/injection, schedule: Q04DX003 (ip), vehicle: Klucel (hydroxypropylcellulose) (HPC)) 92 % of control; (dose: 400.0 mg/kg/injection, schedule: Q04DX003 (ip), vehicle: Klucel (hydroxypropylcellulose) (HPC)) 94 % of control.

As to `O=C1N(c2nncs2)CCN1[N+](=O)[O-]`, the T/C was 91 % of control under setting [16], 102 % of control under setting [17], 100 % of control under setting [6] and 87 % of control under setting [9].

Take `O=C(O)c1cc(O)ccc1O`: the T/C is, setting by setting: under setting [5], 93 % of control; under setting [7], 100 % of control; under setting [2], 102 % of control; under setting [4], 98 % of control.

Source of the values: PubChem BioAssay AID192 (DTP/NCI, 2004).
